pIC50: −log10 of the molar value.
System: mutant Huntington (HTT) protein
Assay: HTT Mutant HTRF iPSC assay (mHTT protein lowering)
Type: cell-based
Conditions: human iPSC derived from a HTT patient with a poly-Q49 mutation

Compound	pIC50
Cc1cn2cc(NC(=O)c3cc4ccc(C5CNC(C)C5)nc4s3)cc(F)c2n1 (centres unmarked) [Compound 179, N-(8-fluoro-2-methylimidazo[1,2-a]pyridin-6-yl)-6-(5-methylpyrrolidin-3-yl)thieno[2,3-b]pyridine-2-carboxamide]	> 7.00
COc1cc2nn(C)cc2cc1NC(=O)c1cc2nc(N3CCC(N(C)C)C3)ccc2o1 (centres unmarked) [Compound 170, 5-(3-(dimethylamino)pyrrolidin-1-yl)-N-(6-methoxy-2-methyl-2H-indazol-5-yl)furo[3,2-b]pyridine-2-carboxamide]	> 7.00
CCN1CCN(c2ccc3nc(C(=O)Nc4cc5cn(C)nc5cc4OC)sc3n2)CC1 [Compound 118, 5-(4-ethylpiperazin-1-yl)-N-(6-methoxy-2-methyl-2H-indazol-5-yl)thiazolo[5,4-b]pyridine-2-carboxamide]	6.00 to 7.00
Cc1cn2cc(NC(=O)c3cc4ccc(C5=CCCNC5)nc4s3)cc(F)c2n1 [Compound 84, N-(8-fluoro-2-methyl-imidazo[1,2-a]pyridin-6-yl)-6-(1,2,3,6-tetrahydropyridin-5-yl)thieno[2,3-b]pyridine-2-carboxamide]	> 7.00
Cc1cn2cc(NC(=O)c3cc4ccc(N5CC6(CCCN(C)C6)C5)nc4s3)cc(F)c2n1 [Compound 76, N-(8-fluoro-2-methylimidazo[1,2-a]pyridin-6-yl)-6-(6-methyl-2,6-diazaspiro[3.5]nonan-2-yl)thieno[2,3-b]pyridine-2-carboxamide]	6.00 to 7.00
Cc1cn2cc(NC(=O)c3cc4ccc(N5CC[C@@H]6CN(C)C[C@@H]65)nc4s3)nc(C)c2n1 (racemic) [Compound 194, N-(2,8-dimethylimidazo[1,2-a]pyrazin-6-yl)-6-((3aR,6aR)-5-methylhexahydropyrrolo[3,4-b]pyrrol-1(2H)-yl)thieno[2,3-b]pyridine-2-carboxamide]	> 7.00
Cc1cn2cc(NC(=O)c3cc4ccc(N5CCC6(CCN(C)CC6)CC5)nc4s3)ccc2n1 [Compound 20]	6.00 to 7.00
Cc1cn2cc(NC(=O)c3cc4nc(N5CC[C@H](N(C)C)C5)ccc4o3)cc(F)c2n1 [Compound 8, 5-[(3S)-3-(dimethylamino)pyrrolidin-1-yl]-N-(8-fluoro-2-methyl-imidazo[1,2-a]pyridin-6-yl)furo[3,2-b]pyridine-2-carboxamide]	5.05 to 6.00
COc1cc2nn(C)cc2cc1NC(=O)c1cc2ccc(N3CCC(N(C)C)C3)nc2s1 (single isomer, unassigned) [Compound 244]	> 7.00
COc1nc(NC(=O)c2cc3ccc(N4CCC(N(C)C)C4)nc3s2)cn2cc(C)nc12 (single isomer, unassigned) [Compound 198]	> 7.00
Cc1cn2cc(NC(=O)c3cc4ccc(N5CC(N(C)C)C5)nc4s3)ccc2n1 [Compound 22, 6-(3-(dimethylamino)azetidin-1-yl)-N-(2-methylimidazo[1,2-a]pyridin-6-yl)thieno[2,3-b]pyridine-2-carboxamide]	5.05 to 6.00
COc1cc2nn(C)cc2cc1NC(=O)c1cc2nc(N3CCN(C)CC3)ccc2o1 [Compound 263, N-(6-methoxy-2-methyl-2H-indazol-5-yl)-5-(4-methylpiperazin-1-yl)furo[3,2-b]pyridine-2-carboxamide]	> 7.00
CCOc1cn2nc(C)cc2cc1NC(=O)c1cc2ccc(N3CC4(CCN(C)C4)C3)nc2s1 [Compound 256, N-(6-ethoxy-2-methylpyrazolo[1,5-a]pyridin-5-yl)-6-(6-methyl-2,6-diazaspiro[3.4]octan-2-yl)thieno[2,3-b]pyridine-2-carboxamide]	> 7.00
Cc1cn2cc(NC(=O)c3cc4ccc(N5CCC(N(C)C)C5)nc4s3)cc(C)c2n1 (centres unmarked) [Compound 73, 6-(3-(dimethylamino)pyrrolidin-1-yl)-N-(2,8-dimethylimidazo[1,2-a]pyridin-6-yl)thieno[2,3-b]pyridine-2-carboxamide]	5.05 to 6.00
COc1cc2nn(C)cc2cc1NC(=O)c1cc2nc(N3CCC4(CCCN4C)C3)ccc2o1 (centres unmarked) [Compound 167, N-(6-methoxy-2-methyl-2H-indazol-5-yl)-5-(1-methyl-1,7-diazaspiro[4.4]nonan-7-yl)furo[3,2-b]pyridine-2-carboxamide]	> 7.00
CNC1CN(c2ccc3cc(C(=O)Nc4cc(F)c5nc(C)cn5c4)sc3n2)C1 [Compound 197, N-(8-fluoro-2-methylimidazo[1,2-a]pyridin-6-yl)-6-(3-(methylamino)azetidin-1-yl)thieno[2,3-b]pyridine-2-carboxamide]	> 7.00
Cc1cn2cc(NC(=O)c3cc4ccc(C5CCN(C)C5)nc4s3)cc(F)c2n1 (single isomer, unassigned) [Compound 181]	> 7.00
COc1nc(NC(=O)c2cc3ccc(N4CCC(N(C)C)C4)nc3s2)cn2cc(C)nc12 (single isomer, unassigned) [Compound 199]	> 7.00

Compound	pIC50
Cc1cn2cc(NC(=O)c3cc4ccc(N5CCC6CNCC65)nc4s3)cc(F)c2n1 (centres unmarked) [Compound 201, N-(8-fluoro-2-methylimidazo[1,2-a]pyridin-6-yl)-6-(hexahydropyrrolo[3,4-b]pyrrol-1(2H)-yl)thieno[2,3-b]pyridine-2-carboxamide]	> 7.00
Cc1nc2c(F)cc(NC(=O)c3cc4ccc(N5CCC(N(C)C)C5)nc4s3)cc2o1 (centres unmarked) [Compound 71, 6-(3-(dimethylamino)pyrrolidin-1-yl)-N-(4-fluoro-2-methylbenzo[d]oxazol-6-yl)thieno[2,3-b]pyridine-2-carboxamide]	> 7.00
Cc1cn2cc(NC(=O)c3cc4ncc(N5CCC(N(C)C)C5)cc4o3)cc(F)c2n1 (centres unmarked) [Compound 86, 6-[3-(dimethylamino)pyrrolidin-1-yl]-N-(8-fluoro-2-methyl-imidazo[1,2-a]pyridin-6-yl)furo[3,2-b]pyridine-2-carboxamide]	6.00 to 7.00
Cc1cn2cc(NC(=O)c3nc4ccc(N5C[C@@H]6CCN[C@@H]6C5)nc4s3)cc(F)c2n1 [Compound 105, N-(8-fluoro-2-methylimidazo[1,2-a]pyridin-6-yl)-5-((3aS,6aS)-hexahydropyrrolo[3,4-b]pyrrol-5(1H)-yl)thiazolo[5,4-b]pyridine-2-carboxamide]	> 7.00
CNC1CCN(c2ccc3cc(C(=O)Nc4cn5cc(C)nc5c(C)n4)sc3n2)C1 (centres unmarked) [Compound 219, N-(2,8-dimethylimidazo[1,2-a]pyrazin-6-yl)-6-(3-(methylamino)pyrrolidin-1-yl)thieno[2,3-b]pyridine-2-carboxamide]	> 7.00
Cc1cn2cc(NC(=O)c3cc4ccc(C5CCNCC5)nc4s3)cc(F)c2n1 [Compound 85, N-(8-fluoro-2-methylimidazo[1,2-a]pyridin-6-yl)-6-(piperidin-4-yl)thieno[2,3-b]pyridine-2-carboxamide]	> 7.00
Cc1cn2cc(NC(=O)c3cc4ncc(N5C[C@@H]6CN(C)C[C@@H]65)nc4s3)cc(F)c2n1 [Compound 268, N-(8-fluoro-2-methyl-imidazo[1,2-a]pyridin-6-yl)-3-[(1S,5R)-3-methyl-3,6-diazabicyclo[3.2.0]heptan-6-yl]thieno[2,3-b]pyrazine-6-carboxamide]	6.00 to 7.00
Cc1cc(NC(=O)c2cc3nc(N4CCC(N(C)C)C4)ccc3o2)cc2cn(C)nc12 (centres unmarked) [Compound 7, N-(2,7-dimethyl-2H-indazol-5-yl)-5-(3-(dimethylamino)pyrrolidin-1-yl)furo[3,2-b]pyridine-2-carboxamide]	5.05 to 6.00
Cc1cn2cc(NC(=O)c3cc4ccc(N5C[C@@H]6C[C@H]5CN6C(C)C)nc4s3)cc(F)c2n1 [Compound 189, N-(8-fluoro-2-methylimidazo[1,2-a]pyridin-6-yl)-6-((1S,4S)-5-isopropyl-2,5-diazabicyclo[2.2.1]heptan-2-yl)thieno[2,3-b]pyridine-2-carboxamide]	> 7.00
Cc1cn2cc(NC(=O)c3cc4ccc(N5C[C@H]6CCN[C@H]6C5)nc4s3)cc(F)c2n1 [Compound 245, N-(8-fluoro-2-methylimidazo[1,2-a]pyridin-6-yl)-6-((3aR,6aR)-hexahydropyrrolo[3,4-b]pyrrol-5(1H)-yl)thieno[2,3-b]pyridine-2-carboxamide]	> 7.00
Cc1cn2cc(NC(=O)c3cc4ccc(N5CC[C@@]6(CCCN6C)C5)nc4s3)nc(C(F)F)c2n1 (single isomer, unassigned) [Compound 254]	> 7.00
Cc1cn2cc(NC(=O)c3nc4ccc(C5C[C@@H](C)N[C@@H](C)C5)nc4s3)cc(F)c2n1 (stereo partly drawn) [Compound 139, 5-[(2S,6R)-2,6-dimethyl-4-piperidyl]-N-(8-fluoro-2-methyl-imidazo[1,2-a]pyridin-6-yl)thiazolo[5,4-b]pyridine-2-carboxamide]	> 7.00
Cc1cn2cc(NC(=O)c3cc4cnc(N5CC[C@@H](N(C)C)C5)nc4s3)nc(C)c2n1 [Compound 150, (R)-2-(3-(dimethylamino)pyrrolidin-1-yl)-N-(2,8-dimethylimidazo[1,2-a]pyrazin-6-yl)thieno[2,3-d]pyrimidine-6-carboxamide]	6.00 to 7.00
COc1cc2nn(C)cc2cc1NC(=O)c1cc2ncc(N3CCC4(CN(C)C4)C3)nc2s1 [Compound 248, N-(6-methoxy-2-methyl-2H-indazol-5-yl)-3-(2-methyl-2,6-diazaspiro[3.4]octan-6-yl)thieno[2,3-b]pyrazine-6-carboxamide]	6.00 to 7.00
Cc1cn2nc(NC(=O)c3cc4ccc(N5CC[C@H](N(C)C)C5)nc4s3)ccc2n1 [Compound 52, (S)-6-(3-(dimethylamino)pyrrolidin-1-yl)-N-(2-methylimidazo[1,2-b]pyridazin-6-yl)thieno[2,3-b]pyridine-2-carboxamide]	6.00 to 7.00
Cc1cn2cc(NC(=O)c3cc4cnc(N5CC[C@@H](N(C)C)C5)nc4s3)cc(F)c2n1 [Compound 149, (R)-2-(3-(dimethylamino)pyrrolidin-1-yl)-N-(8-fluoro-2-methylimidazo[1,2-a]pyridin-6-yl)thieno[2,3-d]pyrimidine-6-carboxamide]	6.00 to 7.00
Cc1cn2cc(NC(=O)c3nc4ccc(N5C[C@@H]6CN(C)C[C@@H]65)nc4s3)cc(F)c2n1 [Compound 106, N-(8-fluoro-2-methylimidazo[1,2-a]pyridin-6-yl)-5-((1S,5R)-3-methyl-3,6-diazabicyclo[3.2.0]heptan-6-yl)thiazolo[5,4-b]pyridine-2-carboxamide]	6.00 to 7.00
